Literature values as cited in article PMC10687119, “Quaternary Ammonium Salts of Cationic Lipopeptides with Lysine Residues — Synthesis, Antimicrobial, Hemolytic and Cytotoxic Activities” (Probiotics and Antimicrobial Proteins, 2023).

Legend:
S. aureus = test system: S. aureus; set-up: method as in PMID 20374251; conditions: against S. aureus ref 5; cited from earlier work
human keratinocytes = test system: human keratinocytes; set-up: method as in PMID 33003569; conditions: toxicity towards human keratinocytes ref 3; in µg/mL; cited from earlier work
[1] = cited from earlier work

C12-Orn-Orn-Trp-Trp-NH2
MIC (S. aureus): 0.95 to 1.95 µg/mL

C16-CRRKKC-NH2
IC50 (human keratinocytes): 21.3 ± 8.2

C[N+](C)(C)CC(=O)O [betaine, N,N,N-trimethylglycine]
solubility in water [1]: 611 mg/mL

C16-RRKK-NH2 [Peptide C16-RRKK-NH2]
IC50 (human keratinocytes): 8.1 ± 1.1
